Assays:
[1] = tested on: Helicobacter pyroli; assay: AHP: Antibacterial Activity Test Against Helicobacter pyroli (agar dilution); type: cell-based, HP NCTC 11637; details: Helicobacter, NCTC11637, 168 h; HP NCTC 11637, agar dilution, 7 days; read-out: AHP minimum inhibitory concentration (MIC)
Method: AHP: Antibacterial Activity Test Against Helicobacter pyroli i) Meaning The minimum inhibitory concentration (MIC) against Helicobacter pyroli (microaerophilic gram-negative bacterium which is supposed to deeply involve in pathogenesis, relapse, and recrudescence of ulcer, referred to as "HP" in the following) is measured so as to find out compounds which have antimicrobial activity against Helicobacter pyroli. ii) Method MICs were determined by the agar dilution method. The stock culture (-80° C.) of HP NCTC 11637 was thawed and cultured on tripticase soy agar supplemented with 5% sheep blood at 37° C. in an atmosphere of 5% O2, 10% CO2, and 85% N2. Grown colonies were transferred to the same plate and precultured for 3 days under the same condition. […] 10 μl of the bacterial suspension for inoculation (about 10^3 cfu) was inoculated on this plate and cultured for 7 days under the same condition as that of preculture. […] As the result of the comparison of these plates, when the number of the colony on the plate containing the sample compound was less than 90% with respect to that on the control plate, it was represented by "+". Contrary to this, when there was 90% or more, it was represented by "-".

[2] = tested on: stress ulcer; assay: WIS: Restraint and Water Immersion Stress-Induced Ulcer Inhibition Test; type: in vivo, rat (male Crj:SD or Slc:SD); details: 100 mg/kg oral, rats, 7 hours restraint and water immersion (21° C.)
Method: WIS: Restraint and Water Immersion Stress-Induced Ulcer Inhibition Test
The degree of inhibition of the stress ulcer formation is tested.
Male Crj:SD or Slc:SD rats (6 to 7-week-old) were fasted overnight, but allowed free access to water. Each group has 5 to 8 of these rats. […] To a control group, the vehicle was administered. 10 minutes later, the rats were placed in a stress cage and immersed to the level of xipfoid process in a water bath (21° C.) for 7 hours. At the end of the stress, the rats were sacrificed by inhalation of ether or carbon dioxide. Then, the stomach of each was removed, inflated by injecting 10 ml of 5% formalin neutral buffer solution, and immersed in 1% formalin neutral buffer solution for 30 minutes or more to be fixed. The stomach was incised along the greater curvature and then the length of each erosion in the glandular portion was determined under dissecting microscope. The sum of the length of erosions per stomach was defined as ulcer index (UI).
The effect obtained when 100 mg/kg of the sample compound had been administered was expressed as ulcer formation inhibitory rate (%) as follows:
ulcer formation inhibitory rate (%)=(1-(UI in sample group/UI in control group))×100

[3] = MTT: Cell Damaging and Protecting Effect Test; type: cell-based, rabbit (male Japanese White); details: rabbit, gastric corpus mucosa cells, final concentration 10^-4 M, smaller value is better, read-out: MTT cell damaging rate
Excerpt: MTT: Cell Damaging and Protecting Effect Test
It is confirmed that there is no toxicity in cell level. Those having a toxicity in cell level are inappropriate as an anti-ulcer drug.
A male Japanese White rabbit (2.5 to 3 kg) was anesthetized to death by Nembutal™ and, immediately thereafter, its stomach was removed. The greater curvature of the stomach was incised so as to remove the stomach contents therefrom. After the mucosal surface was washed with HBSS (Hanks' Balanced Salt Solution), the stomach in ice-cooled HBSS was transferred to a laboratory. Then, after the pyloric antrum was removed, the gastric corpus mucosa was separated by a spatula and then minced into 2 to 3 mm^3 pieces in BME (Basal Medium Eagle). Thereafter, these pieces were shaken at 120 to 130 cycles/minute for 15 minutes at 37° C. in BME 60 ml containing 280 U/ml of dispase and 30 to 50 U/ml of collagenase. Here, the concentration of collagenase was appropriately changed for each lot in view of the state of cells. The pieces were washed twice with EBSS (Earle's Balanced Salt Solution) containing 1 mM of EDTA and then shaken in MEM (Minimum Essential Medium) containing 1 mM of EDTA at 37° C. for 5 minutes. Subsequently, they were shaken in the dispase and collagenase having the same concentrations as those mentioned above for 15 minutes so as to remove the supernatant and then further shaken at 37° C. for 50 to 60 minutes at 120 to 130 cycles/minute. Then, after being washed twice with HBSS, Ham F12 containing 2% of Ultrocer G™ was used to attain the concentration of 1×10^6 cells/ml. Thus formed suspension was dispensed in each well of a 96-well plate by 200 μl. The plate was incubated in the atmosphere composed of 5% CO2 and 95% air at 37° C. for three days so as to attain a confluent state and then subjected to MTT assay.
The sample compound was dissolved in DMSO so as to attain a concentration of 10^-2 M and then diluted with HBSS containing 2% of Ultrocer G™ so as to attain a final concentration of 10^-4 M. To each group, which 8 wells were used for, 10 μl of MTT reagent was added immediately after 100 μl of the medium in each well was exchanged for same volume of the resulting solution of the sample compound. After being incubated in an atmosphere composed of 5% CO2 and 95% air at 37° C. for 4 hours, thus formed solution was centrifuged and then its supernatant was discarded. Subsequently, 100 μl of 100% ethanol was added to the residue so as to dissolve MTT formazan. Then, the absorbance (OD: 570 to 630) was measured by a microplate reader. This method utilizes a phenomenon in which MTT is changed to MTT formazan only by mitochondria of living cells so as to change color.
The cell damaging or cell protecting effect of the sample compound at the final concentration of 10^-4 M was expressed as cell damaging rate (%) as follows:
cell damaging rate (%)=(1-(absorbance in sample group/absorbance in control group))×100
Accordingly, the smaller rate value is better in the cell damage.

Compound: CC(C)=CCC/C(C)=C/COc1ccc(C(=O)N2CCN(CCNC(=O)c3ccc4c(c3)OCO4)CC2)cc1 [Example 1, 1-(4-geranyloxy)benzoyl-4-[2-(piperonyloylamino)ethyl]piperazine]
- MIC [1]: < 3.13 µg/mL
- WIS ulcer formation inhibitory rate [2]: 81%
- cytotoxicity at 4 h, 100 µM [3]: 21%

From patent publication US5962456A, “N-acylpiperazine derivative, anti-ulcer drug, and antibacterial drug” (Shiseido Co., Ltd., priority 1996, dated 1999)
